Patent publication US10709692B2, “Isoxazolidine derived inhibitors of receptor interacting protein kinase 1 (RIPK1)” (Denali Therapeutics Inc., priority 2015, dated 2020)

Target: T1, receptor interacting protein kinase 1 (GST-hRIPK1 (8-327)) (Homo sapiens, UniProt Q13546)
T1 construct: GST-hRIPK1 (8-327) enzyme was generated by Proteros GmbH by Baculovirus expression system
T1 sequence (Q13546 8-327): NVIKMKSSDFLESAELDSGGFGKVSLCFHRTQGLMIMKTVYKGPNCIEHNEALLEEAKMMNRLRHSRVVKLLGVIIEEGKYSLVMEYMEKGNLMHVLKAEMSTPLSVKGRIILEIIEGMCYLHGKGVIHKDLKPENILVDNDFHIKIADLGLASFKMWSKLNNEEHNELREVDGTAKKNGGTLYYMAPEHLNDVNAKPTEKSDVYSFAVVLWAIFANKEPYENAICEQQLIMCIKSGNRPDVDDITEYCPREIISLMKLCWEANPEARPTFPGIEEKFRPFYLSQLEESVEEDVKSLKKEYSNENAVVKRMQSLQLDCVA
Test: Fluorescent Polarization Binding (FP Binding) assay
Details: 10 nM GST-hRIPK1 (8-327), 5 nM fluorescent-labeled ligand, 30 min at RT
Outline: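 Displacement of 5 nM fluorescent ligand from 10 nM GST-hRIPK1 (8-327), 30 min at room temperature in pH 7.5 HEPES buffer, 1% DMSO. Fluorescence polarization read (ex 531/em 595 nm); IC50 fitted from percent inhibition and averaged over at least two independent experiments.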

| SMILES | IC50 [µM] |
| --- | --- |
| CC(C)(C)C(=O)N1OCC[C@H]1c1c(F)cccc1F [Compound 68, 1-[(3S)-3-(2,6-Difluorophenyl)-1,2-oxazolidin-2-yl]-2,2-dimethylpropan-1-one] | < 1 |
| O=C([C@H]1C[C@H](O)C1)N1OCC[C@H]1c1ccccc1 [Compound 75, (1r,3r)-3-[(3S)-3-Phenyl-1,2-oxazolidine-2-carbonyl]cyclobutan-1-ol] | 1 to 10 |
| COCC1(C(=O)N2OCC[C@H]2c2ccccc2)CC1 [Compound 76, (3S)-2-[1-(Methoxymethyl)cyclo-propanecarbonyl]-3-phenyl-1,2-oxazolidine] | 1 to 10 |
| CC(C)(C)C(=O)N1OCC[C@@H]1c1cccc(F)c1 [Compound 82, (R)-1-(3-(3-fluorophenyl)isoxazolidin-2-yl)-2,2-dimethylpropan-1-one] | 1 to 10 |
| CC(C)(C)C(=O)N1OCC[C@H]1c1ccc(Cl)cn1 [Compound 89, 1-[(3S)-3-(5-chloropyridin-2-yl)-1,2-oxazolidin-2-yl]-2,2-dimethylpropan-1-one] | < 1 |
| CC1(C(=O)N2OCC[C@H]2c2ccc(F)cc2)CN(CC(F)F)C1 [Compound 90, (3S)-2-[1-(2,2-difluoroethyl)-3-methylazetidine-3-carbonyl]-3-(4-fluorophenyl)-1,2-oxazolidine] | < 1 |
| CC1(S(=O)(=O)N2OCC[C@H]2c2ccc(F)nc2)CC1 [Compound 93, 2-fluoro-5-[(3S)-2-[(1-methylcyclopropyl)sulfonyl]-1,2-oxazolidin-3-yl]pyridine] | 1 to 10 |
| CC(C)(CO)C(=O)N1OCC[C@H]1c1ccc(F)cc1 [Compound 96, 1-[(3S)-3-(4-fluorophenyl)-1,2-oxazolidin-2-yl]-3-hydroxy-2,2-dimethylpropan-1-one] | < 1 |
| Cc1cnc([C@@H]2CCON2C(=O)C(C)(C)CC#N)cn1 [Compound 104, 3,3-dimethyl-4-[(3S)-3-(5-methylpyrazin-2-yl)-1,2-oxazolidin-2-yl]-4-oxobutanenitrile] | < 1 |
| CC(C)(C)C(=O)N1OCC[C@H]1c1ccc(C(F)F)nc1 [Compound 105, 1-[(3S)-3-[6-(difluoromethyl)pyridin-3-yl]-1,2-oxazolidin-2-yl]-2,2-dimethylpropan-1-one] | < 1 |
| CC(C)(C)C(=O)N1OCC[C@H]1c1ccn2ccnc2c1 [Compound 110, 1-[(3S)-3-{imidazo[1,2-A]pyridin-7-yl}-1-oxazolidin-2-yl]-2,2-dimethylpropan-1-one] | < 1 |
| CC(C)(C)C(=O)N1OCC[C@H]1c1cn2ccccc2n1 [Compound 111, 1-(3S)-3-{imidazo[1,2-A]pyridin-2-yl}-1,2-oxazolidin-2-yl-2,2-dimethylpropan-1-one] | 1 to 10 |
| CC(C)(C)C(=O)N1OCC[C@H]1c1ccc(C(F)(F)F)nc1 [Compound 120] | < 1 |
| CC(C)(C)C(=O)N1OCC[C@H]1c1ncc(Cl)cc1F [Compound 121, 1-[(3S)-3-(5-chloro-3-fluoropyridin-2-yl)-1,2-oxazolidin-2-yl]-2,2-dimethylpropan-1-one] | < 1 |
| CC(C)(C)C(=O)N1OCC[C@H]1c1ccc(C(F)(F)F)cn1 [Compound 122, 2,2-dimethyl-(3S)-3-[5-(trifluoromethyl)pyridin-2-yl-1,2-oxazolidin-2-yl]propan-1-one] | < 1 |
| CC(C)(C)C(=O)N1OCC[C@H]1c1nc(C(F)(F)F)cs1 [Compound 123, 2,2-dimethyl-1-[(3S)-3-[4-(trifluoromethyl)-1,3-thiazol-2-yl]-1,2-oxazolidin-2-yl]propan-1-one] | 1 to 10 |
| CC(C)(C)C(=O)N1OCC[C@H]1c1cc2ccccn2n1 [Compound 124, 2,2-dimethyl-1-[(3S)-3-{pyrazolo[1,5-A]pyridin-2-yl}-1,2-oxazolidin-2-yl]propan-1-one] | < 1 |
| Cc1ncc([C@@H]2CCON2C(=O)C(C)(C)C)cn1 [Compound 125, 2,2-dimethyl-1-[(3S)-3-(2-methylpyrimidin-5-yl)-1,2-oxazolidin-2-yl]propan-1-one] | < 1 |
| Cc1ncc([C@@H]2CCON2C(=O)C(C)(C)C(F)F)cn1 [Compound 126, 3,3-difluoro-2,2-dimethyl-1-[(3S)-3-(2-methylpyrimidin-5-yl)-1,2-oxazolidin-2-yl]propan-1-one] | < 1 |
| CC(C)(C)C(=O)N1OCC[C@H]1c1ccc(F)cn1 [Compound 127, 1-[(3S)-3-(5-fluoropyridin-2-yl)-1,2-oxazolidin-2-yl]-2,2-dimethylpropan-1-one] | < 1 |
| CC(C)(C)C(=O)N1OCC[C@H]1c1ccc(C(F)F)cc1 [Compound 128, 1-[(3S)-3-[4-(difluoromethyl)phenyl]-1,2-oxazolidin-2-yl]-2,2-dimethylpropan-1-one] | < 1 |

| SMILES | IC50 [µM] |
| --- | --- |
| CC(C)(CC#N)C(=O)N1OCC[C@H]1c1ccc(C(F)F)nc1 [Compound 131, 4-(3S)-3-[6-(difluoromethyl)pyridin-3-yl]-1,2-oxazolidin-2-yl-3,3-dimethyl-4-oxobutanenitrile] | < 1 |
| CC(C)(C)C(=O)N1OCC[C@H]1c1ccn2nccc2c1 [Compound 132, 2,2-dimethyl-1-[(3S)-3-{pyrazolo[1,5-a]pyridin-5-yl}-1,2-oxazolidin-2-yl]propan-1-one] | < 1 |
| CC(C)(C)C(=O)N1OCC[C@H]1c1cncc(F)c1 [Compound 133, 1-[(3S)-3-(5-fluoropyridin-3-yl)-1,2-oxazolidin-2-yl]-2,2-dimethylpropan-1-one] | < 1 |
| CC(C)(C)C(=O)N1OCC[C@@H]1c1ccc(F)cc1F [Compound 134, 1-[(3R)-3-(2,4-difluorophenyl)-1,2-oxazolidin-2-yl]-2,2-dimethylpropan-1-one] | < 1 |
| CC(C)(C)C(=O)N1OCC[C@H]1c1ccc(F)cc1F [Compound 135, 1-[(3S)-3-(2,4-difluorophenyl)-1,2-oxazolidin-2-yl]-2,2-dimethylpropan-1-one] | < 1 |
| Cc1cnc([C@@H]2CCON2C(=O)C(C)(C)C)cn1 [Compound 138, 2,2-dimethyl-1-[(3S)-3-(5-methylpyrazin-2-yl)-1,2-oxazolidin-2-yl]propan-1-one] | < 1 |
| CC(C)(COC(F)(F)F)C(=O)N1OCC[C@H]1c1cncc(F)c1 [Compound 139, 1-[(3S)-3-(5-fluoropyridin-3-yl)-1,2-oxazolidin-2-yl]-2,2-dimethyl-3-(trifluoromethoxy)propan-1-one] | < 1 |
| CC(C)(C)C(=O)N1OCC[C@H]1c1cccc2ccnn12 [Compound 140, 2,2-dimethyl-1-[(3S)-3-{pyrazolo[1,5-a]pyridin-7-yl}-1,2-oxazolidin-2-yl]propan-1-one] | < 1 |
| CC(C)(C)C(=O)N1OCC[C@H]1c1ccc(C#N)nc1 [Compound 143, 5-[(3S)-2-(2,2-dimethylpropanoyl)-1,2-oxazolidin-3-yl]pyridine-2-carbonitrile] | < 1 |
| COc1cc([C@@H]2CCON2C(=O)C(C)(C)C)ccn1 [Compound 144, 1-[(3S)-3-(2-methoxypyridin-4-yl)-1,2-oxazolidin-2-yl]-2,2-dimethylpropan-1-one] | < 1 |
| COc1ccc([C@@H]2CCON2C(=O)C(C)(C)C)cn1 [Compound 145, 1-[(3S)-3-(6-methoxypyridin-3-yl)-1,2-oxazolidin-2-yl]-2,2-dimethylpropan-1-one] | < 1 |
| CC(C)(C)C(=O)N1OCC[C@H]1c1ccccc1C#N [Compound 146, 2-[(3S)-2-(2,2-dimethylpropanoyl)-1,2-oxazolidin-3-yl]benzonitrile] | < 1 |
| CC(C)(C)C(=O)N1OCC[C@H]1c1cccc(C#N)c1 [Compound 147, 3-[(3S)-2-(2,2-dimethylpropanoyl)-1,2-oxazolidin-3-yl]benzonitrile] | < 1 |
| CC(C)(C)C(=O)N1OCC[C@H]1c1ccc(C2CC2)nc1 [Compound 148, 1-[(3S)-3-(6-cyclopropylpyridin-3-yl)-1,2-oxazolidin-2-yl]-2,2-dimethylpropan-1-one] | < 1 |
| CC(C)(C)C(=O)N1OCC[C@H]1c1ccnc(N)c1 [Compound 149, 1-[(3S)-3-(2-aminopyridin-4-yl)-1,2-oxazolidin-2-yl]-2,2-dimethylpropan-1-one] | 1 to 10 |
| CC(C)(C)C(=O)N1OCC[C@H]1c1cc(C#N)ccc1F [Compound 150, 3-[(3S)-2-(2,2-dimethylpropanoyl)-1,2-oxazolidin-3-yl]-4-fluorobenzonitrile] | < 1 |
| CC(C)(C)C(=O)N1OCC[C@H]1c1ccc(C#N)c(F)c1 [Compound 151, 4-[(3S)-2-(2,2-dimethylpropanoyl)-1,2-oxazolidin-3-yl]-2-fluorobenzonitrile] | < 1 |
| Cc1ccc([C@@H]2CCON2C(=O)C(C)(C)C)cn1 [Compound 152, 2,2-dimethyl-1-[(3S)-3-(6-methylpyridin-3-yl)-1,2-oxazolidin-2-yl]propan-1-one] | < 1 |
| CC(C)(C)C(=O)N1OCC[C@H]1c1ccc(F)c(C#N)c1 [Compound 153, 5-[(3S)-2-(2,2-dimethylpropanoyl)-1,2-oxazolidin-3-yl]-2-fluorobenzonitrile] | < 1 |
| CC(C)(COC(F)F)C(=O)N1OCC[C@H]1c1ccc(C#N)cc1 [Compound 154, 4-[(3S)-2-[3-(difluoromethoxy)-2,2-dimethylpropanoyl]-1,2-oxazolidin-3-yl]benzonitrile] | < 1 |
